# Counter-ions that a name gives are not always drawn.
# System: spiral strips of the arteria pulmonalis of the guinea pig
# Test: Relaxing action on K+-depolarized, CaCl2-contracted spiral strips of guinea pig arteria pulmonalis (modified method of Godfraind and Kaba and of Schumann et al.)
# Conditions: Cavia porcellus; depolarized with 40 mmol/l potassium in calcium-free Tyrode solution; contraction by 0.5 mmol/l CaCl2; cumulative addition; mean value of 4 to 6 strips of vessel; read-out: IC50: concentration of test substance which inhibits the contraction by 50%
# From the text: The pharmacological action of the compound of the formula I has been determined by a modified method of Godfraind and Kaba (Arch. Int. Pharmacodyn. Ther. 196, (Suppl) 35 to 49, 1972) and of Schumann et al. (Naunyn-Schmiedeberg's Arch. Pharmacol. 289, 409 to 418, 1975). In this method, spiral strips of the arteria pulmonalis of the guinea pig are depolarized with 40 mmol/l of potassium after equilibration in calcium-free Tyrode solution. Addition of 0.5 mmol/l of CaCl2 then induces a contraction. The relaxing action of the test substance is determined by cumulative addition of concentrations graduated in 1/2 log 10. The concentration of test substance which inhibits the contraction by 50% (=IC50, mol/l) is determined from the concentration/ effect curve (abscissa: -log mol/l of test substance, ordinate: % inhibition of the maximum contraction, mean value of 4 to 6 strips of vessel). The IC50 values thus obtained are stated in the following table.
row,IC50 [nM],Compound
1,> 100000,"CCOC(=O)[N-]c1cn(N2CCOCC2)n[o+]1 [Molsidomine, N-ethoxycarbonyl-3-morpholino-sydnonimine, reference compound]"
2,2000,"N=c1c[n+](NC2CCCCC2)[n-]o1 [Example 4e, 3-Cyclohexylamino-sydnonimine hydrochloride]"
3,1000,"N=c1c[n+](NC2CCCCC2O)[n-]o1 (centres unmarked) [Example 5b, 3-(2-Hydroxycyclohexyl-amino)-sydnonimine hydrochloride]"
4,2000,"N=c1c[n+](NCCO)[n-]o1 [Example 1a, 3-(2-Hydroxyethylamino)-sydnonimine hydrochloride]"
5,2000,"CCN[n+]1cc(=N)o[n-]1 [Example 2, 3-Ethylamino-sydnonimine hydrochloride]"
